The target in assay [1] is T1, human IGF1R (hIGF1R) (Homo sapiens, UniProt P08069).
T1 construct: containing amino acid residues 957-1367 of human IGF1R; made in house; host or cells: Sf9 cells (baculovirus)
As to the kind of experiment: TR-FRET kinase assay of purified hIGF1R. The note with it: activated hIGF1R 0.5 nM, 10 μM ATP, values given as pIC50 category, read-out: IGF-1R pIC50 (converted). The class given is biochemical.

Assay [2] deals with T2, human IR (hIR) (Homo sapiens, UniProt P06213).
T2 construct: containing amino acid residues 979-1382 of human IR; made in house; host or cells: Sf9 cells (baculovirus), same process as hIGF1R
T2 sequence (P06213 979-1382): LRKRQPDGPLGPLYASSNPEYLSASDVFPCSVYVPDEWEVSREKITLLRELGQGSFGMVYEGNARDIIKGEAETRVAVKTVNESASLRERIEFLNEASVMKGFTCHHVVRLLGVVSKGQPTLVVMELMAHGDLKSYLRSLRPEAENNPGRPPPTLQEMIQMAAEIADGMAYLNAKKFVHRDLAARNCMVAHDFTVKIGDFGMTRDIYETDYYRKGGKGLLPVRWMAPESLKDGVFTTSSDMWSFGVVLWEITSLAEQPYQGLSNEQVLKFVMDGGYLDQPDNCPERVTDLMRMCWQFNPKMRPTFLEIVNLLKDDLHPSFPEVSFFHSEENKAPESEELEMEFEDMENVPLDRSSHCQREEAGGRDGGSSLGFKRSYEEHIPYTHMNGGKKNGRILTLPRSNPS
The experiment in a line: TR-FRET kinase assay of purified hIR. The settings on record: activated hIR 0.5 nM, 10 μM ATP, values given as pIC50 category. The assay is classed as biochemical.

Assay [3] relates to Colo205. The experiment in a line: Inhibition of cell proliferation (CellTiter-Glo or InCell analyzer), Colo205. The settings on record: Homo sapiens, COLO 205, 72 h / 3 days, values given as IC50 category. The assay is classed as cell-based. The procedure, abridged: In one
(In general: ATP-based viability assays read luminescence as a measure of living cells.)

Several values for one entry are separate records, joined by “and”; a condition that tells them apart may be missing. Equal values may be shown once.

T1 sequence (P08069 957-1367): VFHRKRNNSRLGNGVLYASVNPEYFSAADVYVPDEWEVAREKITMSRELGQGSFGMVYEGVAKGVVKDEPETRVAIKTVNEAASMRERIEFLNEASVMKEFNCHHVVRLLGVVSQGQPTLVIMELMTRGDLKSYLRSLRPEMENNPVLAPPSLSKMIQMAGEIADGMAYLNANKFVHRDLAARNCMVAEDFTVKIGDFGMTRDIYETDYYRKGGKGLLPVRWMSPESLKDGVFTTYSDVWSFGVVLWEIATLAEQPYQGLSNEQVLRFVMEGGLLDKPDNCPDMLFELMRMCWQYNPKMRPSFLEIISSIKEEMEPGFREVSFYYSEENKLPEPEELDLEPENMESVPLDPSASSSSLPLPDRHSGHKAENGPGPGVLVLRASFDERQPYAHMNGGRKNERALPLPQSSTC

Take `COc1cc(N2CCC[C@H](O)C2)ccc1Nc1nc(Nc2cc(F)ccc2C(N)=O)c2cc[nH]c2n1` [Example 74, 4-fluoro-2-[(2-{[4-[(3S)-3-hydroxy-1-piperidinyl]-2-(methyloxy)phenyl]amino}-1H-pyrrolo[2,3-d]pyrimidin-4-yl)amino]benzamide]: the IC50 in assay [1] was 0.251 to 1 nM; in assay [2] it was 0.251 to 1 nM; in assay [3], less than 250 nM.

Consider `COc1cc(N2CCC(N3CCCC(F)(F)C3)CC2)ccc1Nc1nc(Nc2cc(F)ccc2C(N)=O)c2cc[nH]c2n1` [Example 77, 2-[(2-{[4-(3,3-difluoro-1,4′-bipiperidin-1′-yl)-2-(methyloxy)phenyl]amino}-1H-pyrrolo[2,3-d]pyrimidin-4-yl)amino]-4-fluorobenzamide], for which the IC50 was 1.26 to 3.98 nM in assay [1], 0.251 to 1 nM in assay [2] and 250 to 1000 nM in assay [3].

For `COc1cc(N2CCC(N3CCN(CCS(C)(=O)=O)CC3)CC2)ccc1Nc1nc(Nc2cccc(F)c2C(N)=O)c2cc[nH]c2n1` [Example 115, 2-fluoro-6-[(2-{[2-(methyloxy)-4-(4-{4-[2-(methylsulfonyl)ethyl]-1-piperazinyl}-1-piperidinyl)phenyl]amino}-1H-pyrrolo[2,3-d]pyrimidin-4-yl)amino]benzamide], the IC50 in assay [1] is 1.26 to 3.98 nM; in assay [2], 1.26 to 3.98 nM; in assay [3] it was less than 250 nM.

With `COc1ccc(N2CCN(C(C)C)CC2)cc1Nc1nc(Nc2ccccc2C(N)=O)c2cc[nH]c2n1` [Example 10, 2-[(2-{[5-[4-(1-methylethyl)-1-piperazinyl]-2-(methyloxy)phenyl]amino}-1H-pyrrolo[2,3-d]pyrimidin-4-yl)amino]benzamide], the results for the IC50 in assay [1], in assay [2] and in assay [3] were 1.26 to 3.98 nM, 1.26 to 3.98 nM and less than 250 nM, respectively.

As for `COc1cc2c(cc1Nc1nc(Nc3cc(F)cc(F)c3C(=O)NC(C)C)c3cc[nH]c3n1)N(C(=O)CN(C)C)CC2` [Example 153, 2-[(2-{[1-(N,N-dimethylglycyl)-5-(methyloxy)-2,3-dihydro-1H-indol-6-yl]amino}-1H-pyrrolo[2,3-d]pyrimidin-4-yl)amino]-4,6-difluoro-N-(1-methylethyl)benzamide], the IC50 is 1.26 to 3.98 nM in assay [1], 1.26 to 3.98 nM in assay [2] and greater than 1000 nM in assay [3].

On to `COc1cc(N2CCC(N3CCOCC3)CC2)ccc1Nc1nc(Nc2ccc(F)cc2C(N)=O)c2cc[nH]c2n1` [Example 59, 5-fluoro-2-{[2-({2-(methyloxy)-4-[4-(4-morpholinyl)-1-piperidinyl]phenyl}amino)-1H-pyrrolo[2,3-d]pyrimidin-4-yl]amino}benzamide], for which the IC50 in assay [1] was 1.26 to 3.98 nM; in assay [2], 0.251 to 1 nM; in assay [3], less than 250 nM.

`CCCN1CCC(COc2ccc(Nc3nc(Nc4cccc(F)c4C(N)=O)c4cc[nH]c4n3)c(OC)c2)CC1` [Example 206, 2-fluoro-6-({2-[(2-(methyloxy)-4-{[(1-propyl-4-piperidinyl)methyl]oxy}phenyl)amino]-1H-pyrrolo[2,3-d]pyrimidin-4-yl}amino)benzamide]: the IC50 is 1.26 to 3.98 nM in assay [1], 1.26 to 3.98 nM in assay [2] and 250 to 1000 nM in assay [3].

Turning to `CCNC(=O)c1c(F)cccc1Nc1nc(Nc2cc3c(cc2OC)CCN3C(=O)CN(C)C)nc2[nH]ccc12` [Example 126, 2-[(2-{[1-(N,N-dimethylglycyl)-5-(methyloxy)-2,3-dihydro-1H-indol-6-yl]amino}-1H-pyrrolo[2,3-d]pyrimidin-4-yl)amino]-N-ethyl-6-fluorobenzamide], the results for the IC50 in assay [1], in assay [2] and in assay [3] were 1.26 to 3.98 nM, 1.26 to 3.98 nM and 250 to 1000 nM, respectively.

Regarding `CCCN1CCC(c2ccc(Nc3nc(Nc4cc(F)c(F)cc4C(N)=O)c4cc[nH]c4n3)c(OC)c2)CC1` [Example 98, 4,5-difluoro-2-[(2-{[2-(methyloxy)-4-(1-propyl-4-piperidinyl)phenyl]amino}-1H-pyrrolo[2,3-d]pyrimidin-4-yl)amino]benzamide], the IC50 in assay [1] was 0.251 to 1 nM; in assay [2] it was 0.251 to 1 nM; in assay [3] it was less than 250 nM.

With `CNC(=O)c1c(F)cccc1Nc1nc(Nc2cc3c(cc2OC)N(C(=O)CN(C)C)CC3)nc2[nH]ccc12` [Example 198, 2-[(2-{[1-(N,N-dimethylglycyl)-6-(methyloxy)-2,3-dihydro-1H-indol-5-yl]amino}-1H-pyrrolo[2,3-d]pyrimidin-4-yl)amino]-6-fluoro-N-methylbenzamide], the IC50 in assay [1] was 1.26 to 3.98 nM; in assay [2] it was 1.26 to 3.98 nM; in assay [3], less than 250 nM.

Consider `CCCN1CCC=C(c2ccc(Nc3nc(Nc4cc(F)ccc4C(=O)N[C@@H](C)CC)c4cc[nH]c4n3)c(OC)c2)C1` [Example 87, 4-fluoro-2-[(2-{[2-(methyloxy)-4-(1-propyl-1,2,5,6-tetrahydro-3-pyridinyl)phenyl]amino}-1H-pyrrolo[2,3-d]pyrimidin-4-yl)amino]-N-[(1S)-1-methylpropyl]benzamide], for which the figures for the IC50 in assay [1], in assay [2] and in assay [3] were 1.26 to 3.98 nM, 1.26 to 3.98 nM and 250 to 1000 nM, respectively.

With `Cc1cc2c(cc1Nc1nc(Nc3cccc(F)c3C(N)=O)c3cc[nH]c3n1)N(C(=O)CN(C)C)CCC2` [Example 246, 2-[(2-{[1-(N,N-dimethylglycyl)-6-methyl-1,2,3,4-tetrahydro-7-quinolinyl]amino}-1H-pyrrolo[2,3-d]pyrimidin-4-yl)amino]-6-fluorobenzamide], the IC50 in assay [1] is 1.26 to 3.98 nM; in assay [2] it was 0.251 to 1 nM and 1.26 to 3.98 nM; in assay [3] it was 250 to 1000 nM.

Consider `COc1cc2c(cc1Nc1nc(Nc3cccc(F)c3C(N)=O)c3cc[nH]c3n1)CCN2C(=O)CN(C)C` [Example 197, 2-[(2-{[1-(N,N-dimethylglycyl)-6-(methyloxy)-2,3-dihydro-1H-indol-5-yl]amino}-1H-pyrrolo[2,3-d]pyrimidin-4-yl)amino]-6-fluorobenzamide], for which the IC50 in assay [1] was 1.26 to 3.98 nM; in assay [2] it was 0.251 to 1 nM; in assay [3] it was less than 250 nM.

For the molecule `COc1cc(N2CCN(C(C)C)CC2)c(OC)cc1Nc1nc(Nc2cc(F)ccc2C(N)=O)c2cc[nH]c2n1` [Example 82, 4-fluoro-2-[(2-{[4-[4-(1-methylethyl)-1-piperazinyl]-2,5-bis(methyloxy)phenyl]amino}-1H-pyrrolo[2,3-d]pyrimidin-4-yl)amino]benzamide], the IC50 is 1.26 to 3.98 nM in assay [1], 1.26 to 3.98 nM in assay [2] and less than 250 nM in assay [3].

Take `CNC(=O)c1c(F)cccc1Nc1nc(Nc2cc3c(cc2OC)C(C)(C)CN3C(=O)CN(C)C)nc2[nH]ccc12` [Example 127, 2-[(2-{[1-(N,N-dimethylglycyl)-3,3-dimethyl-5-(methyloxy)-2,3-dihydro-1H-indol-6-yl]amino}-1H-pyrrolo[2,3-d]pyrimidin-4-yl)amino]-6-fluoro-N-methylbenzamide]: the IC50 in assay [1] is 1.26 to 3.98 nM; in assay [2], 1.26 to 3.98 nM; in assay [3], 250 to 1000 nM.

`COc1cc(N2CCN(C(C)C)CC2)ccc1Nc1nc(Nc2cc(F)cc(OC)c2C(N)=O)c2cc[nH]c2n1` [Example 88]: the IC50 in assay [1] was 1.26 to 3.98 nM; in assay [2], 1.26 to 3.98 nM; in assay [3], 250 to 1000 nM.

For `COc1cc(N2CCN(C(C)C)CC2)ccc1Nc1nc(Nc2cc(Cl)cc(F)c2C(N)=O)c2cc[nH]c2n1` [Example 93, 4-chloro-2-fluoro-6-[(2-{[4-[4-(1-methylethyl)-1-piperazinyl]-2-(methyloxy)phenyl]amino}-1H-pyrrolo[2,3-d]pyrimidin-4-yl)amino]benzamide], the values for the IC50 in assay [1], in assay [2] and in assay [3] were 1.26 to 3.98 nM, 1.26 to 3.98 nM and 250 to 1000 nM, respectively.

The values are drawn from patent publication US7981903B2, “2-[2-{phenylamino}-1H-pyrrolo[2,3-D]pyrimidin-4-yl)amino] benzamide derivatives as IGF-1R inhibitors for the treatment of cancer” (GlaxoSmithKline LLC, priority 2007, dated 2011).
